Experiments:
[1] = Compound was evaluated for its inhibitory activity against UV4 cell in the presence of drug alone.; format: functional, cell-based, Cricetulus griseus
[2] = Ratio of IC50 (drug alone)/IC50(drug+NADH+enzyme); format: functional
[3] = Compound was evaluated for its inhibitory activity against UV4 cell in the presence of drug along with NADH and enzyme(Escherichia coli B nitroreductase); format: functional, cell-based, Cricetulus griseus
[4] = Compound was evaluated for its inhibitory activity against UV4 cell in the presence of drug and NADH.; format: functional, cell-based, Cricetulus griseus

| SMILES | IC50 [1] | Ratio [2] | IC50 [3] | IC50 [4] |
| --- | --- | --- | --- | --- |
| COc1cc2cc(C(=O)N3CC(CCl)c4ccc([N+](=O)[O-])cc43)[nH]c2c(OC)c1OC (configuration not stated) | 2.31 µM | 402 | 0.0064 µM | 0.237 µM |
| COc1cc2cc(C(=O)N3CC(CCl)c4ccc(N)cc43)[nH]c2c(OC)c1OC (configuration not stated) | 0.0236 µM | 23.2 | 0.0278 µM | 0.0266 µM |
| COc1cc2cc(C(=O)N3CC(CCl)c4ccc(NC(=O)OCc5ccc([N+](=O)[O-])cc5)cc43)[nH]c2c(OC)c1OC (configuration not stated) | 15 µM | 0.9 | 0.598 µM | 11.3 µM |

Reference: ChEMBL document CHEMBL1128929, “A novel nitro-substituted seco-CI: Application as a reductively activated adept prodrug” (Bioorg Med Chem Lett, 1996)
